# Data from paper PMC12566157, “Redox-Active Quinazolinone Thioamide Ag(I) Complexes with Potent Antibacterial Activity: Mechanistic Insights and Hydrogel-Enhanced Efficacy” (Molecules, 2025).
# Experiments:
# E. coli = assay: microbe, parasite or virus in culture; conditions: Escherichia coli, read-out: E. coli IC50 μg mL-1
# Procedure: (§1) The in vitro antibacterial activity of the synthesized Ag(I) complexes was investigated against two bacterial strains: Gram (+) S. aureus and the Gram (−) E. coli. The assays were conducted using the broth microdilution method to determine both the half-maximal inhibitory concentrations (IC50) and minimal inhibitory concentrations (MIC).
# S. aureus [1] = assay: microbe, parasite or virus in culture; conditions: Staphylococcus aureus, read-out: S. aureus MIC μg mL-1
# Procedure: as §1
# S. aureus [2] = assay: microbe, parasite or virus in culture; conditions: Staphylococcus aureus, read-out: S. aureus IC50 μg mL-1
# Procedure: as §1
# [3] = target: T1, glutathione reductase (GR) (Escherichia coli, UniProt A0A0H3JIZ9); assay: enzyme inhibition assay with pure E. coli GR; type: biochemical
# T1 construct: gene gor
# T1 sequence (A0A0H3JIZ9 entry or part of it): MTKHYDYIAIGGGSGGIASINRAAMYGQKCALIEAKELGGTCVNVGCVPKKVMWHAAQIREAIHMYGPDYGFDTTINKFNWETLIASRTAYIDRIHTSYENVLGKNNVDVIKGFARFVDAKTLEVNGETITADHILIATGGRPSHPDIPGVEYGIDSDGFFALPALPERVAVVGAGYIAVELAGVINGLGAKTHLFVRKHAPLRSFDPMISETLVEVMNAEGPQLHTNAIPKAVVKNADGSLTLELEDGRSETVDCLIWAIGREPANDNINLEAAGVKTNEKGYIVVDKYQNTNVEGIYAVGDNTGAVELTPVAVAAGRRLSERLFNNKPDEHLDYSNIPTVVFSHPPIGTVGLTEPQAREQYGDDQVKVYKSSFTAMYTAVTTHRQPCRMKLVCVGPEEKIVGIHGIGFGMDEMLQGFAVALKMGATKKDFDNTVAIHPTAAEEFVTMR
# [4] = target: T2, thioredoxin reductase (TrxR) (Escherichia coli, UniProt P0A9P4); assay: enzyme inhibition assay with pure E. coli TrxR; type: biochemical
# T2 construct: gene trxB
# T2 sequence (P0A9P4 2-321): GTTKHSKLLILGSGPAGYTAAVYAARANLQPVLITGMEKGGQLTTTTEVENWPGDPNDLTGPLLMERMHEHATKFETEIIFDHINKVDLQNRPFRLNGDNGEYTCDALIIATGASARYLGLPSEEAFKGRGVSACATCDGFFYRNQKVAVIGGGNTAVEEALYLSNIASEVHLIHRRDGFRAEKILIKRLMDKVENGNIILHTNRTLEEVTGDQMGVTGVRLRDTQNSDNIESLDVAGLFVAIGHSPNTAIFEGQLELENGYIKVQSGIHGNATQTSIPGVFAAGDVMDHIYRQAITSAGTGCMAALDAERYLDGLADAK
Molecule,IC50 (E. coli),MIC (S. aureus [1]),IC50 (S. aureus [2]),IC50 [3],IC50 [4]
"c1ccc(P(c2ccccc2)c2ccccc2Oc2ccccc2P(c2ccccc2)c2ccccc2)cc1 [DPEPhos, bis[(2-diphenylphosphino)phenyl]ether]",> 100 µg/mL,> 100 µg/mL,> 100 µg/mL,–,–
"c1ccc(P(c2ccccc2)c2ccccc2)cc1 [PPh3, thriphenylphosphine]",> 100 µg/mL,> 100 µg/mL,> 100 µg/mL,–,–
"O=c1[nH]c(=S)[nH]c2ccccc12 [mqztH, 2-mercapto-4(3H)-quinazolinone]",> 100 µg/mL,> 100 µg/mL,> 100 µg/mL,–,–
[AgCl(mqztH)(PPh3)2] [compound 1],–,–,–,65 nM,215 nM
